Test results taken from US12319664B2, “Herbicidally active 3-phenylisoxazoline-5-carboxamides of cyclopentenylcarboxylic acid derivatives” (Bayer Aktiengesellschaft, priority 2018, dated 2025).

Legend:
ECHCG = assay: Post-emergence herbicidal action against ECHCG; assay type: in vivo, Echinochloa crus-galli; details: application rate 80 g/ha, rated visually after about 3 weeks
Protocol: (§1) [table] 2. Post-emergence herbicidal action against harmful plants and crop plant compatibility Seeds of monocotyledonous and dicotyledonous weeds and crop plants are placed in sandy loam in plastic or wood-fibre pots, covered with soil and cultivated in a greenhouse under controlled growth conditions. 2 to 3 weeks after sowing, the test plants are treated at the one-leaf stage. The compounds of the invention, formulated in the form of wettable powders (WP) or as emulsion concentrates (EC), are then sprayed onto the green parts of the plants as aqueous suspension or emulsion with addition of 0.5% additive at a water application rate of 600 l/ha (converted). After the test plants have been kept in the greenhouse under optimum growth conditions for about 3 weeks, the activity of the preparations is rated visually in comparison to untreated controls. For example, 100% activity=the plants have died, 0% activity=like control plants.

LOLRI = assay: Post-emergence herbicidal action against LOLRI; assay type: in vivo, Lolium rigidum; details: application rate 80 g/ha, rated visually after about 3 weeks
Protocol: as §1

VERPE = assay: Post-emergence herbicidal action against VERPE; assay type: in vivo, Veronica persica; details: application rate 80 g/ha
Protocol: as §1

AVEFA = assay: Post-emergence herbicidal action against AVEFA; assay type: in vivo, Avena fatua; details: application rate 80 g/ha, rated visually after about 3 weeks
Protocol: as §1

STEME = assay: Post-emergence herbicidal action against STEME; assay type: in vivo, Stellaria media; details: application rate 80 g/ha, rated visually about 3 weeks after treatment
Protocol: as §1

SETVI = assay: Post-emergence herbicidal action against SETVI; assay type: in vivo, Setaria viridis; details: application rate 80 g/ha, rated visually after about 3 weeks
Protocol: as §1

ALOMY = assay: Post-emergence herbicidal action against ALOMY; assay type: in vivo, Alopecurus myosuroides; details: application rate 80 g/ha, rated visually after about 3 weeks
Protocol: as §1

AMARE = assay: Post-emergence herbicidal action against AMARE; assay type: in vivo, Amaranthus retroflexus; details: application rate 80 g/ha, rated visually about 3 weeks after treatment
Protocol: as §1

HORMU = assay: Post-emergence herbicidal action against HORMU; assay type: in vivo, Hordeum murinum; details: application rate 80 g/ha
Protocol: as §1

POLCO = assay: Post-emergence herbicidal action against POLCO; assay type: in vivo, Polygonum convolvulus; details: application rate 80 g/ha, rated visually about 3 weeks after treatment
Protocol: as §1

`Cc1cc(C)cc(C2=NOC(C(=O)NC3C=CC(C(=O)OCCCl)C3)(C(F)(F)F)C2)c1` (mixture of isomers) [Example I-056] was tested, and the “Herbicidal action against [%] ECHCG” value (ECHCG) was 80%, the “Herbicidal action against [%] LOLRI” value (LOLRI) was 90% and the “Herbicidal action against [%] VERPE” value (VERPE) was 80%. For the same compound, the “Herbicidal action against [%] AVEFA” value (AVEFA) was 90%, the “Herbicidal action against [%] STEME” value (STEME) was 90% and the “Herbicidal action against [%] SETVI” value (SETVI) was 80%. The “Herbicidal action against [%] ALOMY” value (ALOMY) was 100%, the “Herbicidal action against [%] AMARE” value (AMARE) was 80% and the “Herbicidal action against [%] HORMU” value (HORMU) was 80%. The “Herbicidal action against [%] POLCO” value (POLCO) was 80%.

For `CC(C)(C)OC(=O)C1C=CC(NC(=O)C2(C(F)(F)F)CC(c3cc(F)cc(F)c3)=NO2)C1` (mixture of isomers) [Example I-066], the “Herbicidal action against [%] ECHCG” value (ECHCG) was 80%, the “Herbicidal action against [%] LOLRI” value (LOLRI) was 90% and the “Herbicidal action against [%] VERPE” value (VERPE) was 80%. The “Herbicidal action against [%] AVEFA” value (AVEFA) was 90%, the “Herbicidal action against [%] SETVI” value (SETVI) was 90% and the “Herbicidal action against [%] ALOMY” value (ALOMY) was 90%. For the same compound, the “Herbicidal action against [%] AMARE” value (AMARE) was 90%, the “Herbicidal action against [%] HORMU” value (HORMU) was 90% and the “Herbicidal action against [%] POLCO” value (POLCO) was 80%.

With `COC(=O)C(C)(C)NC(=O)C1C=CC(NC(=O)C2(C)CC(c3cc(F)cc(F)c3)=NO2)C1` (mixture of isomers) [II-09] the “Herbicidal action against [%] LOLRI” value (LOLRI) was 80%, the “Herbicidal action against [%] AVEFA” value (AVEFA) was 90% and the “Herbicidal action against [%] POLCO” value (POLCO) was 90%.

For `C=CC1(C(=O)NC2C=CC(C(=O)NC(C#N)C(C)C)C2)CC(c2cc(F)cc(F)c2)=NO1` (mixture of isomers) [II-17], the “Herbicidal action against [%] ALOMY” value (ALOMY) was 80%.

With `C=CC1(C(=O)NC2C=CC(C(=O)NC(C)(C)C#N)C2)CC(c2cc(F)cc(F)c2)=NO1` (mixture of isomers) [II-20] the “Herbicidal action against [%] AVEFA” value (AVEFA) was 100% and the “Herbicidal action against [%] STEME” value (STEME) was 80%.

`C=CC1(C(=O)NC2C=CC(C(=O)NC(C(=O)OC)C(C)C)C2)CC(c2cc(F)cc(F)c2)=NO1` (mixture of isomers) [II-25] was tested, and the “Herbicidal action against [%] ECHCG” value (ECHCG) was 80%, the “Herbicidal action against [%] LOLRI” value (LOLRI) was 90% and the “Herbicidal action against [%] AVEFA” value (AVEFA) was 90%. For the same compound, the “Herbicidal action against [%] ALOMY” value (ALOMY) was 80%, the “Herbicidal action against [%] AMARE” value (AMARE) was 80% and the “Herbicidal action against [%] HORMU” value (HORMU) was 100%. The “Herbicidal action against [%] POLCO” value (POLCO) was 80%.

With `O=C(OCCCl)[C@@H]1C=C[C@H](NC(=O)C2(C(F)(F)F)CC(c3ccccc3)=NO2)C1` (some centres unmarked) [Example I-025] the “Herbicidal action against [%] ECHCG” value (ECHCG) was 80%, the “Herbicidal action against [%] LOLRI” value (LOLRI) was 90% and the “Herbicidal action against [%] AVEFA” value (AVEFA) was 90%. For the same compound, the “Herbicidal action against [%] STEME” value (STEME) was 80%, the “Herbicidal action against [%] SETVI” value (SETVI) was 90% and the “Herbicidal action against [%] ALOMY” value (ALOMY) was 90%. For the same compound, the “Herbicidal action against [%] AMARE” value (AMARE) was 90%, the “Herbicidal action against [%] HORMU” value (HORMU) was 80% and the “Herbicidal action against [%] POLCO” value (POLCO) was 100%.

With `C=CC1(C(=O)NC2C=CC(C(=O)NC(C)(C)C(=O)OC)C2)CC(c2cc(F)cc(F)c2)=NO1` (centres unmarked) [II-21] the “Herbicidal action against [%] POLCO” value (POLCO) was 80%.

In the case of `C=CC1(C(=O)NC2C=CC(C(=O)NC(C)(C)C(=O)OC)C2)CC(c2cc(F)cc(F)c2)=NO1` (centres unmarked) [II-22], the “Herbicidal action against [%] LOLRI” value (LOLRI) was 90%, the “Herbicidal action against [%] VERPE” value (VERPE) was 80% and the “Herbicidal action against [%] AVEFA” value (AVEFA) was 90%. For the same compound, the “Herbicidal action against [%] STEME” value (STEME) was 80%, the “Herbicidal action against [%] ALOMY” value (ALOMY) was 80% and the “Herbicidal action against [%] HORMU” value (HORMU) was 90%.

In the case of `C=CC1(C(=O)N[C@H]2C=C[C@H](C(=O)N3CCCCO3)C2)CC(c2cc(F)cc(F)c2)=NO1` (some centres unmarked) [II-29], the “Herbicidal action against [%] ECHCG” value (ECHCG) was 90%, the “Herbicidal action against [%] LOLRI” value (LOLRI) was 90% and the “Herbicidal action against [%] VERPE” value (VERPE) was 80%. The “Herbicidal action against [%] AVEFA” value (AVEFA) was 80%, the “Herbicidal action against [%] SETVI” value (SETVI) was 80% and the “Herbicidal action against [%] AMARE” value (AMARE) was 80%. For the same compound, the “Herbicidal action against [%] HORMU” value (HORMU) was 80% and the “Herbicidal action against [%] POLCO” value (POLCO) was 80%.

`COC(=O)CS(=O)(=O)NC(=O)C1C=CC(NC(=O)C2(C(F)(F)F)CC(c3cc(F)cc(F)c3)=NO2)C1` (centres unmarked) [II-39] was tested, and the “Herbicidal action against [%] LOLRI” value (LOLRI) was 80%, the “Herbicidal action against [%] VERPE” value (VERPE) was 80% and the “Herbicidal action against [%] AVEFA” value (AVEFA) was 90%. The “Herbicidal action against [%] ALOMY” value (ALOMY) was 80%, the “Herbicidal action against [%] AMARE” value (AMARE) was 80% and the “Herbicidal action against [%] HORMU” value (HORMU) was 80%.
